{"source": "patent US4563462A", "about": "“Substance AX-2, a process for producing the same and an antitumor composition containing the same” (Kyowa Hakko Kogyo Kabushiki, priority 1982, dated 1986)", "key": {"[1]": {"tested_on": "Peripherical leucocytes", "experiment": "Peripherical leucocytes count (WBC) in Sarcoma 180 bearing mice", "format": "in vivo, ddy male mouse", "conditions": "blood 4 days after tumour implantation", "description": "(§1) On each occasion, 5×10^6 cells of Sarcoma 180 solid tumour were implanted into the abdominal cavity of a ddy male mouse. 7 days after this, the cells were collected from the ascites.The cells were washed once with a sterilized physiological solution of sodium chloride and suspended in a sterilized physiological solution of sodium chloride at a concentration of 5×10^7 cells/ml, of which 0.1 ml was implanted under the skin at the right artpit of a ddy male mouse having a weight of 20±2 g. 24 hours after this, the active substance was administered into the vein at the tail of each mouse of a group consisting of 5 mice. In order to investigate the anti-tumour activity, 7 days after administration of AX-2, the major axis (a) and minor axis (b) of the tumour were measured, from which the volume of the tumour was calculated as a X b^2 /2. The effect of AX-2 is expressed by T/C which denotes the volume ratio of T [mice administered with AX-2 ] to C (untreated group). Table 1 indicates the effect of AX-2 agsinst Sarcoma 180 solid tumour by injection (iv.).\nThe peripherical leucocytes count (WBC) was measured by using a micro cell counter in the following manner. Sarcoma 180 solid tumour was implanted by injection (ip.). 4 days after this, blood was collected from the eye ground, of which 20 μl was added to 9.98 ml of Cellkit-7 (a reagent commercially available from Toyo Rika K.K., Japan) to dissolve the red cells. In this solution a drop of saponin was dispersed, followed by measuring with a micro cell counter."}, "[2]": {"experiment": "Acute toxicity (LD50) of AX-2, single injection, 14 days observation, Behrens-Korber's method", "set-up": "species or system Mice (ddy strain)", "conditions": "mouse, in vivo, male ddy mice", "description": "The acute toxicity and anti-tumour activity of AX-2 are as follows. I. Acute toxicity (LD50) of AX-2:\nMice (ddy strain; male; weight 20±2 g; each group consisting of 5 mice) were used as test animals. On each occasion, the active substance of this invention was once administered to the animal by injection (ip. or iv.)."}, "[3]": {"tested_on": "Melanoma B16 tumour", "experiment": "Effects on Melanoma B16 tumour (survival, ip.)", "format": "in vivo, C57 BL/6 male mouse", "description": "(2) Effects on Melanoma B16 tumour:\nTumour cells were collected from Melanoma B16 tumour cells lined in the abdominal cavity of a C57 BL/6 male mouse and suspended in a sterilized physiological solution of sodium chloride at a concentration of 2.5×10^7 cell/ml, of which 0.2 ml was implanted into the abdominal cavity of each mouse. The anti-tumour activity was indicated by T/C % where T and C respectively indicate the average survival days of treated and untreated groups.\nAs apparent from this table, it was noted that by administration of AX-2 in an amount of 6 mg/kg, the T/C value was more than 277% and 1/5 of the mice were alive 60 days after the beginning of the administration. The therapeutic index [a dose showing a maximum therapeutic effect/a dose showing a T/C of 130%] was 193."}, "[4]": {"experiment": "Solubility", "format": "physicochemical"}, "[5]": {"tested_on": "Sarcoma 180 solid tumour", "experiment": "Effect on Sarcoma 180 solid tumour (volume ratio T/C, iv.)", "format": "in vivo, ddy male mouse", "conditions": "for T/C (tumour volume ratio): 7 days after administration; for Survials (7 days): Sarcoma 180 mice", "description": "(1) Effect on Sarcoma 180 solid tumour:\nas §1\nA T/C of 0.25 was obtained from the group, to which each 15 mg/kg of AX-2 had been administered. In this table, ED50 denotes a dose capable of reducing the volume of the tumour to 50% of the corresponding volume of the control group. Such volumes were calculated by plotting a relation between the dose and T/C on a logarithmic graph which indiates T/C on the ordinate and the dose on the abscissa, and calculating the dose and anti-tumour activity as a straight line by the method of least squares. The dose corresponding to T/C of 0.5 is defined as ED50."}}}
{"smiles": "COC1=C(C)C(=O)C2=C(C1=O)C(COC(N)=O)C1(OC)NCC3C1N23", "note": "(stereo not shown) [AX-2]", "values": [{"measurement": "Peripherical leucocytes count (WBC) ± SD/mm^3", "setting": "[1]; 1.88 mg/kg", "value": "7730 ± 49 /mm^3"}, {"measurement": "Peripherical leucocytes count (WBC) ± SD/mm^3", "setting": "[1]; 3.75 mg/kg", "value": "6730 ± 115 /mm^3"}, {"measurement": "Peripherical leucocytes count (WBC) ± SD/mm^3", "setting": "[1]; 7.5 mg/kg", "value": "4100 ± 55 /mm^3"}, {"measurement": "Peripherical leucocytes count (WBC) ± SD/mm^3", "setting": "[1]; 10 mg/kg", "value": "2800 ± 80 /mm^3"}, {"measurement": "Peripherical leucocytes count (WBC) ± SD/mm^3", "setting": "[1]; 15 mg/kg", "value": "2950 ± 42 /mm^3"}, {"measurement": "Peripherical leucocytes count (WBC) ± SD/mm^3", "setting": "[1]; 30 mg/kg", "value": "2300 ± 60 /mm^3"}, {"measurement": "LD50 at 336 h", "setting": "[2]; ip.", "value": 7.8, "unit": "mg/kg"}, {"measurement": "LD50 at 336 h", "setting": "[2]; iv.", "value": 27, "unit": "mg/kg"}, {"measurement": "therapeutic index [a dose showing a maximum therapeutic effect/a dose showing a T/C of 130%]", "setting": "[3]", "value": 193}, {"measurement": "Average survival days (days ± SD)", "setting": "[3]; 0.031 mg/kg", "value": "18.4 ± 1.5", "unit": "days"}, {"measurement": "Survived after 60 days after implantation", "setting": "[3]; 0.031 mg/kg", "value": "0/5"}, {"measurement": "T/C (average survival days treated/untreated)", "setting": "[3]; 0.031 mg/kg", "value": 144, "unit": "%"}, {"measurement": "Average survival days (days ± SD)", "setting": "[3]; 0.063 mg/kg", "value": "13.0 ± 1.7", "unit": "days"}, {"measurement": "Survived after 60 days after implantation", "setting": "[3]; 0.063 mg/kg", "value": "0/5"}, {"measurement": "T/C (average survival days treated/untreated)", "setting": "[3]; 0.063 mg/kg", "value": 140, "unit": "%"}, {"measurement": "Average survival days (days ± SD)", "setting": "[3]; 0.125 mg/kg", "value": "19.4 ± 2.0", "unit": "days"}, {"measurement": "Survived after 60 days after implantation", "setting": "[3]; 0.125 mg/kg", "value": "0/5"}, {"measurement": "T/C (average survival days treated/untreated)", "setting": "[3]; 0.125 mg/kg", "value": 152, "unit": "%"}, {"measurement": "Average survival days (days ± SD)", "setting": "[3]; 0.25 mg/kg", "value": "17.8 ± 1.1", "unit": "days"}, {"measurement": "Survived after 60 days after implantation", "setting": "[3]; 0.25 mg/kg", "value": "0/5"}, {"measurement": "T/C (average survival days treated/untreated)", "setting": "[3]; 0.25 mg/kg", "value": 140, "unit": "%"}, {"measurement": "Average survival days (days ± SD)", "setting": "[3]; 0.5 mg/kg", "value": "21.0 ± 2.8", "unit": "days"}, {"measurement": "Survived after 60 days after implantation", "setting": "[3]; 0.5 mg/kg", "value": "0/5"}, {"measurement": "T/C (average survival days treated/untreated)", "setting": "[3]; 0.5 mg/kg", "value": 164, "unit": "%"}, {"measurement": "Average survival days (days ± SD)", "setting": "[3]; 1.0 mg/kg", "value": "24.0 ± 3.5", "unit": "days"}, {"measurement": "Survived after 60 days after implantation", "setting": "[3]; 1.0 mg/kg", "value": "0/5"}, {"measurement": "T/C (average survival days treated/untreated)", "setting": "[3]; 1.0 mg/kg", "value": 189, "unit": "%"}, {"measurement": "Average survival days (days ± SD)", "setting": "[3]; 2.0 mg/kg", "value": "27.4 ± 5.4", "unit": "days"}, {"measurement": "Survived after 60 days after implantation", "setting": "[3]; 2.0 mg/kg", "value": "0/5"}, {"measurement": "T/C (average survival days treated/untreated)", "setting": "[3]; 2.0 mg/kg", "value": 214, "unit": "%"}, {"measurement": "Average survival days (days ± SD)", "setting": "[3]; 4.0 mg/kg", "value": "33.4 ± 9.2", "unit": "days"}, {"measurement": "Survived after 60 days after implantation", "setting": "[3]; 4.0 mg/kg", "value": "0/5"}, {"measurement": "T/C (average survival days treated/untreated)", "setting": "[3]; 4.0 mg/kg", "value": 261, "unit": "%"}, {"measurement": "Average survival days (days ± SD)", "setting": "[3]; 6.0 mg/kg", "value": "35.4 ± 5.3", "unit": "days"}, {"measurement": "Survived after 60 days after implantation", "setting": "[3]; 6.0 mg/kg", "value": "1/5"}, {"measurement": "Average survival days (days ± SD)", "setting": "[3]; 8.0 mg/kg", "value": "10.6 ± 4.2", "unit": "days"}, {"measurement": "Survived after 60 days after implantation", "setting": "[3]; 8.0 mg/kg", "value": "0/5"}, {"measurement": "T/C (average survival days treated/untreated)", "setting": "[3]; 8.0 mg/kg", "value": 93, "unit": "%"}, {"measurement": "Average survival days (days ± SD)", "setting": "[3]; 12.0 mg/kg", "value": "4.8 ± 1.6", "unit": "days"}, {"measurement": "Survived after 60 days after implantation", "setting": "[3]; 12.0 mg/kg", "value": "0/5"}, {"measurement": "T/C (average survival days treated/untreated)", "setting": "[3]; 12.0 mg/kg", "value": 26, "unit": "%"}, {"measurement": "Solubility", "setting": "[4]; ethyl acetate, chloroform, acetone, methanol and ethanol", "value": "Soluble"}, {"measurement": "Solubility", "setting": "[4]; petroleum ether and n-hexane", "value": "Insoluble"}, {"measurement": "Solubility", "setting": "[4]; water", "value": "Slightly soluble"}, {"measurement": "T/C (tumour volume ratio)", "setting": "[5]; 1.88 mg/kg", "value": 0.77}, {"measurement": "Survials (7 days)", "setting": "[5]; 1.88 mg/kg", "value": "4/4"}, {"measurement": "T/C (tumour volume ratio)", "setting": "[5]; 3.75 mg/kg", "value": 0.64}, {"measurement": "Survials (7 days)", "setting": "[5]; 3.75 mg/kg", "value": "4/4"}, {"measurement": "T/C (tumour volume ratio)", "setting": "[5]; 7.5 mg/kg", "value": 0.42}, {"measurement": "Survials (7 days)", "setting": "[5]; 7.5 mg/kg", "value": "4/4"}, {"measurement": "T/C (tumour volume ratio)", "setting": "[5]; 10 mg/kg", "value": 0.34}, {"measurement": "Survials (7 days)", "setting": "[5]; 10 mg/kg", "value": "4/4"}, {"measurement": "T/C (tumour volume ratio)", "setting": "[5]; 15 mg/kg", "value": 0.25}, {"measurement": "Survials (7 days)", "setting": "[5]; 15 mg/kg", "value": "4/4"}, {"measurement": "T/C (tumour volume ratio)", "setting": "[5]; 30 mg/kg", "value": 0.05}, {"measurement": "Survials (7 days)", "setting": "[5]; 30 mg/kg", "value": "3/4"}, {"measurement": "effect (dose dependence)", "setting": "[5]; 7.5 to 15 mg/kg", "value": "the effect increased according to the increased dose"}, {"measurement": "ED50", "setting": "[5]; Mus musculus, Sarcoma-180, 168 h, least squares from dose vs T/C log plot, read-out: ED50 (dose reducing tumour volume to 50% of control, T/C 0.5)", "value": 5.7, "unit": "mg/kg"}]}
